Results reported in article PMC4026528 (PLoS ONE, 2014).

How the values were obtained:
Format in all cases: cell-based, human
[1] = test system: HT-1080 (fibrosarcoma) cells; assay: Soft agar assay (anchorage-independent growth), HT-1080; settings: Homo sapiens
Experimental: (§1) Soft agar assay and analysis was carried out as previously described. For scratch assay, confluent monolayer of U2OS and HT-1080 cells were subjected to scratch using a sterile pipette tip. Wounded monolayers were washed to remove debris and incubated with SEN461 at different concentrations for 20 hours. After the incubation period, images were taken under an Axiovert 200M (Zeiss) microscope equipped with a CCD camera, and the gap width was measured using MetaMorph 6.3 software (Universal Imaging Corp.) to calculate the area covered by cells (pixels unit). The tube formation assay was performed using growth factor-reduced Matrigel from BD (BD Biosciences; San Jose, CA, USA). Matrigel was thawed overnight at 4°C and was diluted (1∶1) with phenol red-free DMEM without serum. 100 µl of the diluted matrigel was used to coat the wells of a 96 well plate and was allowed to polymerize for 2 hours at 37°C. After equilibrating the gel with the complete growth medium, 15×10^3 cells were seeded in each well and incubated for 20 hours. The tube formation was monitored under a phase contrast microscope (Axiovert 200, Zeiss) and imaged using MetaMorph system (Universal Imaging Corp).

[2] = test system: Axin1, c-Myc, p21 protein in HT-1080 cells; assay: Western blotting in HT-1080; settings: HT-1080, overnight
HT-1080 cells = assay: Tube formation assay, HT-1080
Experimental: as §1, with “After equilibrating the gel with the complete growth medium, 15×10^3 cells were seeded in each well and incubated for 20 hours.” left out

[3] = test system: U2OS (osteosarcoma) cells; assay: Soft agar assay (anchorage-independent growth), U2OS; settings: Homo sapiens
Experimental: as §1

[4] = test system: Wnt target gene mRNA in HT-1080 cells; assay: Quantitative RT-PCR of Wnt target genes in HT-1080; settings: HT-1080, overnight, 10 µmol/L
Experimental: RNA extraction and quantitative RT-PCR (qPCR) expression analysis was performed as described previously. Gene expression analysis was performed using the human housekeeping gene RPL13A. Primers for the hAXIN2, hCDC25A, hc-MYC, hFZD4, hDVL2, hCSNK1G and hVEGF-A were the following: Fw: 5′-CAAGGGCCAGGTCACCAA-3′ Rv: 5′-CCCCCAACCCATCTTCGT-3′; Fw: 5′-[…]-3′ Rv: 5′-[…]-3′; Fw: 5′-GGCTCCTGGCAAAAGGTCA-3′ Rv: 5′-[…]-3′; Fw: 5′-[…]-3′ Rv: 5′-[…]-3′; Fw: 5′-[…]-3′ Rv: 5′-GTCTCCCCGCTCATTGCTC-3′; Fw: 5′-[…]-3′ Rv: 5′-[…]-3′; Fw: 5′-[…]-3′ Rv: 5′-[…]-3′.

Compound	IC50 [1] [nM]	c-Myc protein level [2]	tubule-formation activity (HT-1080 cells; HT-1080, 24 hours exposure, vs DMSO)	IC50 [3] [nM]	c-MYC mRNA [4]	tubule-formation activity (HT-1080 cells; HT-1080, 3 µmol/L, data not shown)
Oc1nc(-c2ccc(C(F)(F)F)cc2)nc2c1CSCC2 [XAV939, reference compound]	1900	did not affect c-Myc protein level	did not produce any change	200	comparable activity	
Cc1ccc(C(=O)Nc2ccc(S(=O)(=O)O)c3cc(S(=O)(=O)O)cc(S(=O)(=O)O)c23)cc1NC(=O)c1cccc(NC(=O)Nc2cccc(C(=O)Nc3cc(C(=O)Nc4ccc(S(=O)(=O)O)c5cc(S(=O)(=O)O)cc(S(=O)(=O)O)c45)ccc3C)c2)c1 [Suramin]						complete abrogation of tubule formation
